Results: US10125119B2, “Series of resveratrol-derivative fluorescently labeled molecules and synthesis method thereof” (Hangzhou Normal University, priority 2017, dated 2018)

COc1cc(/C=C/c2ccc(Oc3nc(Cl)nc(-n4cc(-c5ccc(C(=C(c6ccccc6)c6ccccc6)c6ccccc6)cc5)nn4)n3)cc2)cc(OC)c1 [Product (I)]
melting point: 165 to 166 °C
